# Experimental data taken from patent US20120039805A1, “Therapeutics And Methods For Treating Neoplastic Diseases Comprising Determining The Level Of Caveolin-1 And/Or Caveolin-2 In A Stromal Cell Sample” (PANGEA BIOSCIENCES, INC., priority 2009, published 2012).
# Assays:
# Cav-1 = test: Co-culture of MCF-7 cells with normal human fibroblasts: Cav-1 down-regulation in fibroblasts; type: cell-based; conditions: within 5 days of co-culture
# Source text: Using this system, it was observed that within 5 days of co-culture MCF-7 cells down-regulate the expression of Cav-1 in adjacent stromal fibroblasts. This occurs via the degradation of Cav-1 in lysosomal structures, and can be inhibited by chloroquine, an anti-lysomal agent. Most importantly, MCF-7 cells induce oxidative stress in the adjacent fibroblasts via the over-production of reactive oxygen species (ROS). ROS, in turn, is known to stabilize and activate certain transcription factors, such as NFkB and HIF. NFkB- and HIF- are the master regulators of “inflammation” and “hypoxia/aerobic glycolysis” in the tumor microenvironment. Thus, in order to detect the activation of NFkB and HIF only in the fibroblast cell population, two different fibroblast cell lines engineered to express either a NFkB-luciferase or HIF-luciferase transcriptional reporter were used. […] As such, NFkB is activated first, while HIF is activated on day 4 and day 5 of coculture, coicindent with Cav-1 down-regulation. Thus, cancer cells induce the Warburg effect in adjacent stromal fibroblasts via the activation of NFkB and HIF-target genes, leading to inflammation and aerobic glycolysis. These findings provide a mechanistic basis for the “Reverse Warburg Effect”, and a new high-throughput drug-screening assay for the identification of novel compounds that block the “Reverse Warburg Effect”.
# [1] = tested on: PD-ECGF/TP transfected cells; conditions: Haraguchi (1993); cited from earlier work
# [2] = tested on: MDA-MB-231 breast cancer cells co-injected with Cav-1-deficient stromal fibroblasts; test: Two-component xenograft: nude mice co-injected with MDA-MB-231 cells and Cav-1-deficient stromal fibroblasts, treated with glycolysis inhibitors; type: in vivo; conditions: given individually, 200 mg/kg; mice co-injected with Cav-1-deficient stromal fibroblasts and MDA-MB-231 cells
# Procedure: Mice co-injected with Cav-1-deficient stromal fibroblasts and MDA-MB-231 breast cancer cells were treated with glycolysis inhibitors. The efficacy of two well-established glycolysis inhibitors, namely 2-DG (2-deoxy-D-glucose) and DCA (dichloro-acetate), individually or in combination were tested.
# To provide additional experimental validation for the idea that an absence of stromal Cav-1 promotes breast cancer tumor growth and angiogenesis, a 2-component cell-system using xenografts in immuno-deficient female nude mice was developed. Briefly, the flanks of nude mice were injected with a mixture of 1) MDA-MB-231 cells (a highly aggressive human breast cancer cell line; 1.0×10^−6 cells) and 2) stromal fibroblasts, derived from either WT or Cav-1 (−/−) null mice (0.3×10^−6 cells). After 3 weeks, nude mice were sacrificed and breast cancer-derived tumors were subjected to analysis for growth (tumor weight and volume measurements) and immuno-histochemistry with markers of angiogenesis, such as CD31 (a.k.a, PECAM1).
# In this two-component system, nude mice are co-injected with i) human breast cancer cells (MDA-MB-231), and ii) stromal fibroblasts (WT versus Cav-1 (−/−) deficient).
# [3] = tested on: invasive carcinomas of the breast; test: Breast cancer tissue microarray cohort: progression-free survival by treatment and stromal Cav-1; type: in vivo, human
# Procedure: Breast tissues for tissue microarray construction were obtained from the Surgical Pathology tiles at the University of Michigan with institutional Review Board (IRB) approval. The TMA contained tissues derived from 154 largely consecutive patients with invasive carcinomas of the breast, with follow-up information treated at the University of Michigan from 1987-1991. Clinical and pathological variables were determined following well-established criteria. All invasive carcinomas were graded according to the method described by Elston and Ellis 17; Lymphovascular Invasion (LVI) was classified as either present or absent. The tissue microarrays were constructed, as previously described, using a tissue arrayer (Beecher Instruments, Silver Spring, Md.). Three tissue cores (0.6 mm diameter) were sampled from each block to account for tumor and tissue heterogeneity and transferred to the recipient block. Only cases with two or three cores containing tumor stromal cells were considered for statistical analysis in order to address possible heterogeneity of the staining in various tumor portions. Clinical and treatment information was extracted by chart review.
# Our study population consists of 154 women diagnosed with breast cancer, with a median age of 59.5 years (range 28-96 years). 85% of the women were white. The median follow-up time for all survivors was 8.4 years (>30 days-18.5 years). […] The median time to recurrence or death from any cause was 7.1 years.
# Statistical Analysis. For each patient, the date of breast cancer diagnosis, date of last follow-up, vital status at last follow-up, causes of death (breast cancer or other), and breast cancer recurrence, were recorded. Stromal caveolin was scored for each tissue sample based on 3 cores taken from the sample and given a numeric score of 0, 1 or 2, depending on the degree of stromal Cav-1 staining. The median of the three numeric scores was taken to be the stromal Cav-1 score for the sample. In the event that only two of the cores were scorable, and the median score was fractional, it was rounded upward to reflect the presence of stromal Cav-1. […]
# Our primary outcome of interest in this study is progression-free survival (PFS) from time of diagnosis to the presence of metastasis, death, or last visit. PFS is evaluated using Kaplan-Meier estimation, and comparison of stratified survival curves was done using log-rank tests. […] Associations between the presence of stromal Cav-1 and other factors, including age, race, tumor grade, tumor size, lymph node status, histological subtype, estrogen receptor (ER), progesterone receptor (PR) and HER2, and presence of recurrent disease, were evaluated using Fisher's exact and Kruskal-Wallis tests, depending on the discrete or continuous nature of the other factors.
# neovascularization = conditions: Oikawa (1988); cited from earlier work
# [4] = Tamoxifen-treated patients, stromal Cav-1 absent
compound,measurement,setting,value
CCN(CC)CCCC(C)Nc1ccnc2cc(Cl)ccc12 (centres unmarked) [chloroquine],degradation of Cav-1 in lysosomal structures of fibroblasts co-cultured with MCF-7 cells,Cav-1,inhibited
"C[C@H]1O[C@@H](n2cc(F)c(=O)[nH]c2=O)[C@H](O)[C@@H]1O [5′DFUR, 5′-deoxy-5-fluorouridine]",antitumor effect in PD-ECGF/TP transfected cells compared with untransfected wild-type cells,[1],dramatic enhancement of antitumor effect
"O=CC[C@@H](O)[C@H](O)[C@H](O)CO [2-DG, 2-deoxy-D-glucose]",effect on tumor growth,[2],no effect on tumor growth
CC/C(=C(\c1ccccc1)c1ccc(OCCN(C)C)cc1)c1ccccc1 [Tamoxifen],"Hazard ratio, Cox regression of Progression-Free Survival (PFS)","[3]; Tamoxifen use Yes vs No (ref), adjusted for T stage, N stage, stromal Cav-1, 101 observations",0.621
same,Median Progression-Free Survival (PFS),[3]; [4],3.55 years
same,"Percent of Patients Alive with No Recurrence, 5-Year PFS",[3]; [4],28.6%
same,"Percent of Patients Alive with No Recurrence, 5-Year PFS","[3]; Tamoxifen-treated patients, stromal Cav-1 present",90.2%
"CC(=O)O[C@]1(C(C)=O)CC[C@H]2[C@@H]3C[C@H](C)C4=CC(=O)CC[C@]4(C)[C@H]3CC[C@@]21C [MPA, medroxyprogesterone acetate]",neovascularization in the rabbit corneal assay,neovascularization,potently inhibited neovascularization
